Assay results: US10544156B2, “Hemi-synthetic trilobine analogs for use as a drug” (PIERRE FABRE MEDICAMENT, priority 2015, dated 2020)

Experiments:
P73 promoter in HCT116 = experiment: C5 DNA methylation analysis of P73 promoter; type: cell-based, human; settings: after 7 days, at 0.32 μM
Description: (§1) Cancer cell lines (colon HCT116 or leukaemia KG1) were treated with the compounds as indicated in the Data Tables and then analysed as following.
(§2) DNA was isolated from cultured cells using the DNeasy Blood and Tissue Kit according to the manufacturer's specifications (Qiagen). DNA bisulphite conversion was performed on 2 μg of DNA using the EZ DNA Methylation-Gold Kit according to the manufacturer's specifications (Zymo Research) and bisulfited DNA was eluted with 10 μL of water.
(§3) Two different techniques were used to analyse the DNA methylation profile after bisulfite conversion of genomic DNA: (A) cloning and sequencing or (B) COBRA. The primers for each promoter are specified in Table 4.
(§4) Sequencing of bisulfite-treated DNA allowing resolution of the methylation state of every cytosine in the target sequence, at single molecule resolution, is considered as the “gold standard” for DNA methylation analysis.
(§5) Bisulfite-specific primers with a minimum length of 18 bp were designed using Primer 3 program. […]
(§6) PCR amplicons were cloned with the StrataClone Ultra Blunt PCR Cloning Kit (Agilent Technologies), according to the manufacturers' instructions and up to 24 clones were picked for sequencing. […] Electrophoregram files and methylation signals at a given CpG site were quantified using the BISMA software as described above.

KG-1 (leukemia) = experiment: Anti-proliferative activity (ATPLite); type: cell-based; settings: Homo sapiens; daily treatment, cell viability by ATPLite; read-out: Antiproliferative activity: IC50 (μM) KG-1 (leukemia)
Description: (§7) To measure the anti-proliferative properties of tested molecules, 2×10^4 cells are seeded at day 0 in a 96 wells plate. The compounds to be tested, stored at −20° C. as 10^−2 M stock solution in 100% DMSO, are freshly diluted on day 1 in the cell medium, before adding a dose range of 3.2 nM to 10 μM to the cells. Cells are treated everyday and cell viability assessed after 3 days or 7 days of treatment. The cell viability is assessed using the ATPLite kit from Perkin (ATPlite 1 Step Luminescence Assay System, ref 3016739), following the provider instructions. The raw data are analyzed with GraphPad Prism software (v4.03) to generate IC50 values corresponding to the compound concentrations giving 50% reduction in cell viability. The values presented are the mean results of at least two independent experiments. The standard errors are indicated.

WM266-4 (melanoma) = experiment: Anti-proliferative activity (ATPLite); type: cell-based; settings: Homo sapiens, WM 266-4; two treatments instead of three; cell viability by ATPLite; read-out: Antiproliferative activity: IC50 (μM) WM266-4 (melanoma)
Description: as §7

[1] = tested on: P15 promoter in leukaemia KG1 cells; experiment: C5 DNA methylation analysis of CDKN2B (P15) promoter; type: cell-based, human; settings: after 3 days, at 0.32 μM
Description: as §1, §2, §3, §4, §5, §6

SMILES | Demethylation P73*/HCT116 (P73 promoter in HCT116) | IC50 (KG-1 (leukemia)) | IC50 (WM266-4 (melanoma)) | Demethylation P15/KG1 [1]
CNC(=O)N1CCc2cc(OC)c3c4c2[C@@H]1Cc1ccc(cc1)Oc1cc(ccc1OC)C[C@H]1c2cc(c(cc2CCN1C)O3)O4 [Product 44] | *−17% after 7 days | 4.2 ± 0.05 µM | 12 ± 3 µM | –
CCN(CC)CCCNC(=S)N1CCc2cc3c4cc2[C@@H]1Cc1ccc(OC)c(c1)Oc1ccc(cc1)C[C@H]1c2c(cc(OC)c(c2O4)O3)CCN1C(=S)NCCCN(CC)CC [Product 41] | *−24% after 7 days | 5.3 ± 0.4 µM | 4.4 ± 1.5 µM | –
COc1ccc2cc1Oc1ccc(cc1)C[C@@H]1NCCc3cc(OC)c4c(c31)Oc1cc3c(cc1O4)CCN(C)[C@H]3C2 [Trilobine (1), trilobine] | – | 2.1 ± 0.8 µM | 3.2 ± 0.8 µM | −25% after
